Source: patent US9708368B2, “Linear peptide antibiotics” (priority 2012, dated 2017)
In brackets after ≈: the same amount, converted by molar mass. Square brackets hold non-standard residues; d marks the D form. Peptide text beside a SMILES is read from it. * marks the point of attachment. ξ: configuration not given here. boroAla((+)-pinanediol) = C[C@H](N*)B1O[C@@H]2C[C@@H]3C[C@@H](C3(C)C)[C@]2(C)O1; Biphenylcarbonyl(4'-Bu) = CCCCc1ccc(-c2ccc(C(=O)*)cc2)cc1; X11 = CC[C@H](N*)B1OC2C[C@@H]3C[C@@H](C3(C)C)[C@]2(C)O1; X1 = C[C@H](N*)B1OC2C[C@@H]3C[C@@H](C3(C)C)[C@]2(C)O1; Benzoyl(4-(4-Cl-Ph)) = O=C(c1ccc(-c2ccc(Cl)cc2)cc1)*; Pro(4S-NH2) = N[C@@H]1CN[C@H](C(=O)O)C1; NMeT = CN[C@H](C(=O)O)[C@@H](C)O; Gly(cPr) = N[C@H](C(=O)O)C1CC1; Thr(3ξ) = CC(O)[C@H](N)C(=O)O; Lauroyl = CCCCCCCCCCCC(=O)*; X3 = CCCCCCCCCCCCS(=O)(=O)*; Decanoyl = CCCCCCCCCC(=O)*; X8 = C[C@H](N*)C(=O)C(N)=O; boroAla = C[C@H](N*)B(O)O; Dap = NC[C@H](N)C(=O)O; ξK = NCCCCC(N)C(=O)O; βAla = NCCC(=O)O

How the values were obtained:
[1] = tested on: methicillin resistant Staphylococcus aureus (MRSA) strain USA300 (NRS384); settings: Method B, 35° C., 22 hours
E. coli SPase = E. coli SPase (Escherichia coli, UniProt P00803); experiment: Biochemical SPase activity assay (fluorogenic peptide substrate), E. coli enzyme
[2] = tested on: Escherichia coli strain MC4100 IMP-4213, which harbors an LptD mutation; settings: Method B; E. coli MC4100 IMP-4213 (LptD mutation); 35° C., 22 hours
In short: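 Two-fold serial dilutions of compound inoculated at final OD600 0.0005, incubated static at 35 °C for 22 h, and growth read visually.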

S. aureus SPase = S. aureus SPase (Staphylococcus aureus, UniProt P0A070); experiment: biochemical

SMILES | MIC (μg/mL) S. aureus [1] | IC50 (E. coli SPase) | MIC (μg/mL) E. coli [2] | IC50 (S. aureus SPase)
CCCCc1ccc(-c2ccc(C(=O)N[C@@H](CCCCN)C(=O)N[C@H](C(=O)N[C@H](C(=O)N[C@@H](CCCCN)C(=O)N[C@@H](C)B(O)O)C3CC3)C(C)O)cc2)cc1 (some centres unmarked) [Compound 147] ({Biphenylcarbonyl(4'-Bu)}-K[Thr(3ξ)][Gly(cPr)]K-boroAla) | 0.25 µg/mL (≈ 0.321 µM) | 14 nM | 0.31 µg/mL (≈ 0.398 µM) | 98 nM
CCCCc1ccc(-c2ccc(C(=O)NCCC(=O)N3C[C@@H](N)C[C@H]3C(=O)N[C@H](C(=O)N[C@@H](C)C(=O)N[C@@H](CC(N)=O)C(=O)N[C@@H](C)B3OC4C[C@@H]5C[C@@H](C5(C)C)[C@]4(C)O3)[C@@H](C)O)cc2)cc1 (stereo partly drawn) [Compound 213] ({Biphenylcarbonyl(4'-Bu)-βAla}-[Pro(4S-NH2)]TAN-X1) | 0.22 µg/mL (≈ 0.237 µM) | 6.8 nM | 1.3 µg/mL (≈ 1.4 µM) | 7.7 nM
C[C@H](NC(=O)[C@H](CCCCN)NC(=O)[C@H](C)NC(=O)[C@H](CCCCN)NC(=O)[C@H](CN)NC(=O)c1ccc(-c2ccc(Cl)cc2)cc1)B(O)O [Compound 180] ({Benzoyl(4-(4-Cl-Ph))}-[Dap]KAK-boroAla) | 1 µg/mL (≈ 1.39 µM) | 11 nM | 1 µg/mL (≈ 1.39 µM) | 280 nM
CCCCCCCCCCCCS(=O)(=O)N[C@@H](CCCCN)C(=O)N[C@H](C(=O)N[C@@H](C)C(=O)N[C@@H](CCCCN)C(=O)N[C@@H](C)B(O)O)C(C)O (some centres unmarked) [Compound 265] (X3-K[Thr(3ξ)]AK-boroAla) | 0.13 µg/mL (≈ 0.173 µM) | 120 nM | 4 µg/mL (≈ 5.33 µM) | 17 nM
CCCCc1ccc(-c2ccc(C(=O)N[C@@H](CCCCN)C(=O)N[C@@H](CCC(=O)OCC)C(=O)N[C@@H](C)C(=O)N[C@@H](CCCCN)C(=O)N[C@@H](C)B3O[C@@H]4C[C@@H]5C[C@@H](C5(C)C)[C@]4(C)O3)cc2)cc1 [Compound 261] ({Biphenylcarbonyl(4'-Bu)}-KE(OEt)AK-{boroAla((+)-pinanediol)}) | 0.71 µg/mL (≈ 0.752 µM) | 41 nM | 0.79 µg/mL (≈ 0.837 µM) | 280 nM
CCCCc1ccc(-c2ccc(C(=O)NCCC(=O)N[C@@H](CCCCN)C(=O)N[C@H](C(=O)N[C@@H](C)C(=O)N[C@H](C(=O)N[C@@H](C)B3O[C@@H]4C[C@@H]5C[C@@H](C5(C)C)[C@]4(C)O3)C(C)C)[C@@H](C)O)cc2)cc1 [Compound 194] ({Biphenylcarbonyl(4'-Bu)-βAla}-KTAV-{boroAla((+)-pinanediol)}) | 0.71 µg/mL (≈ 0.763 µM) | 16 nM | 6.3 µg/mL (≈ 6.77 µM) | 4.7 nM
C[C@H](NC(=O)[C@H](CC(N)=O)NC(=O)[C@H](C)NC(=O)[C@@H](NC(=O)[C@H](CCCCN)NC(=O)CCNC(=O)c1ccc(-c2ccc(Cl)cc2)cc1)[C@@H](C)O)B(O)O [Compound 154] ({Benzoyl(4-(4-Cl-Ph))-βAla}-KTAN-boroAla) | 2.8 µg/mL (≈ 3.55 µM) | 14 nM | 32 µg/mL (≈ 40.6 µM) | 8.1 nM
CCCCCCCCCCCC(=O)N[C@@H](CCCCN)C(=O)N[C@H](C(=O)N[C@@H](C)C(=O)N[C@@H](CCCCN)C(=O)N[C@@H](C)B1OC2C[C@@H]3C[C@@H](C3(C)C)[C@]2(C)O1)[C@@H](C)O (some centres unmarked) [Compound 141] (Lauroyl-KTAK-X1) | 0.79 µg/mL (≈ 0.947 µM) | 33 nM | 5.7 µg/mL (≈ 6.83 µM) | 23 nM
CCCCc1ccc(-c2ccc(C(=O)NCCC(=O)N[C@@H](CCCCN)C(=O)N(C)[C@H](C(=O)N[C@@H](C)C(=O)N[C@@H](CC(N)=O)C(=O)N[C@@H](C)B3OC4C[C@@H]5C[C@@H](C5(C)C)[C@]4(C)O3)[C@@H](C)O)cc2)cc1 (some centres unmarked) [Compound 192] ({Biphenylcarbonyl(4'-Bu)-βAla}-K[NMeT]AN-X1) | 0.59 µg/mL (≈ 0.615 µM) | 27 nM | 16 µg/mL (≈ 16.7 µM) | 12 nM
CCCCc1ccc(-c2ccc(C(=O)N[C@@H](CCCCN)C(=O)N[C@@H](CN)C(=O)N[C@@H](C)C(=O)N[C@@H](CC(C)C)C(=O)N[C@@H](C)B(O)O)cc2)cc1 [Compound 165] ({Biphenylcarbonyl(4'-Bu)}-K[Dap]AL-boroAla) | 0.63 µg/mL (≈ 0.87 µM) | 120 nM | 0.63 µg/mL (≈ 0.87 µM) | 410 nM
CCCCc1ccc(-c2ccc(C(=O)NC(CCCCN)C(=O)N[C@@H](CCCCN)C(=O)N[C@@H](C)C(=O)N[C@@H](CC(C)C)C(=O)N[C@@H](C)C(=O)C(N)=O)cc2)cc1 (some centres unmarked) [Compound 253] ({Biphenylcarbonyl(4'-Bu)}-[ξK]KAL-X8) | 8 µg/mL (≈ 10.1 µM) | 4800 nM | 11 µg/mL (≈ 13.9 µM) | 2100 nM
CCCCc1ccc(-c2ccc(C(=O)N[C@@H](CN)C(=O)N[C@@H](CN)C(=O)N[C@@H](C)C(=O)N[C@@H](CC(C)C)C(=O)N[C@@H](C)B3OC4C[C@@H]5C[C@@H](C5(C)C)[C@]4(C)O3)cc2)cc1 (some centres unmarked) [Compound 170] ({Biphenylcarbonyl(4'-Bu)}-[Dap][Dap]AL-X1) | 2 µg/mL (≈ 2.45 µM) | 10 nM | 0.4 µg/mL (≈ 0.49 µM) | 530 nM
CCCCc1ccc(-c2ccc(C(=O)N[C@@H](CCCCN)C(=O)N[C@H](C(=O)N[C@@H](C)C(=O)N[C@@H](CC(N)=O)C(=O)N[C@@H](C)B3O[C@@H]4C[C@@H]5C[C@@H](C5(C)C)[C@]4(C)O3)[C@@H](C)O)cc2)cc1 [Compound 129] ({Biphenylcarbonyl(4'-Bu)}-KTAN-{boroAla((+)-pinanediol)}) | 0.74 µg/mL (≈ 0.847 µM) | 14 nM | 0.91 µg/mL (≈ 1.04 µM) | 140 nM
CCCCCCCCCC(=O)NCCC(=O)N[C@@H](CCCCN)C(=O)N[C@H](C(=O)N[C@@H](C)C(=O)N[C@@H](CC(N)=O)C(=O)N[C@@H](C)B1OC2C[C@@H]3C[C@@H](C3(C)C)[C@]2(C)O1)[C@@H](C)O (some centres unmarked) [Compound 199] ({Decanoyl-βAla}-KTAN-X1) | 7 µg/mL (≈ 8.11 µM) | 4.5 nM | >64 µg/mL | 1.4 nM
CCCCc1ccc(-c2ccc(C(=O)N[C@@H]3CN[C@H](C(=O)N[C@H](C(=O)N[C@@H](C)C(=O)N[C@@H](CCCCN)C(=O)N[C@@H](C)B4OC5C[C@@H]6C[C@@H](C6(C)C)[C@]5(C)O4)[C@@H](C)O)C3)cc2)cc1 (some centres unmarked) [Compound 268] | 1 µg/mL (≈ 1.15 µM) | 1600 nM | 16 µg/mL (≈ 18.4 µM) | 81 nM
CCCCc1ccc(-c2ccc(C(=O)NCCC(=O)N[C@@H](CCCCN)C(=O)N3CCC[C@H]3C(=O)N[C@@H](C)C(=O)N[C@@H](CC(N)=O)C(=O)N[C@@H](C)B(O)O)cc2)cc1 [Compound 220] ({Biphenylcarbonyl(4'-Bu)-βAla}-KPAN-boroAla) | 0.5 µg/mL (≈ 0.62 µM) | 36 nM | 4 µg/mL (≈ 4.96 µM) | 7 nM
CCCCc1ccc(-c2ccc(C(=O)N[C@@H](CN)C(=O)N[C@H](C(=O)N[C@@H](C)C(=O)N[C@@H](CCCCN)C(=O)N[C@@H](C)B3O[C@@H]4C[C@@H]5C[C@@H](C5(C)C)[C@]4(C)O3)[C@@H](C)O)cc2)cc1 [Compound 149] ({Biphenylcarbonyl(4'-Bu)}-[Dap]TAK-{boroAla((+)-pinanediol)}) | 0.28 µg/mL (≈ 0.331 µM) | 3.9 nM | 0.31 µg/mL (≈ 0.366 µM) | 129 nM
CCCCc1ccc(-c2ccc(C(=O)N[C@@H](CCCCN)C(=O)N3CCC[C@H]3C(=O)N[C@@H](C)C(=O)N[C@@H](CC(N)=O)C(=O)N[C@@H](C)B(O)O)cc2)cc1 [Compound 158] ({Biphenylcarbonyl(4'-Bu)}-KPAN-boroAla) | 5.7 µg/mL (≈ 7.75 µM) | 33 nM | 5 µg/mL (≈ 6.8 µM) | 400 nM
CCCCc1ccc(-c2ccc(C(=O)NCCC(=O)N[C@@H](CCCCN)C(=O)N[C@H](C(=O)N[C@@H](C)C(=O)N[C@@H](CC(N)=O)C(=O)N[C@@H](CC)B3OC4C[C@@H]5C[C@@H](C5(C)C)[C@]4(C)O3)[C@@H](C)O)cc2)cc1 (some centres unmarked) [Compound 203] ({Biphenylcarbonyl(4'-Bu)-βAla}-KTAN-X11) | 1.4 µg/mL (≈ 1.46 µM) | 130 nM | 32 µg/mL (≈ 33.4 µM) | 21 nM
CCCCc1ccc(-c2ccc(C(=O)N3C[C@@H](N)C[C@H]3C(=O)N3CCC[C@H]3C(=O)N[C@@H](C)C(=O)N[C@@H](CCCCN)C(=O)N[C@@H](C)B3OC4C[C@@H]5C[C@@H](C5(C)C)[C@]4(C)O3)cc2)cc1 (stereo partly drawn) [Compound 181] ({Biphenylcarbonyl(4'-Bu)}-[Pro(4S-NH2)]PAK-X1) | 0.4 µg/mL (≈ 0.461 µM) | 5.4 nM | 0.5 µg/mL (≈ 0.576 µM) | 18 nM
